Our source for the IC50 values is US12404295B2, “(Hetero)aryl-methyl-thio-beta-D-galactopyranoside derivatives” (Idorsia Pharmaceuticals Ltd, priority 2019, dated 2025).

Like-named read-outs stand apart in the source and are kept apart here.

For one test, the target named is human Gal-3 (hGal-3) (Homo sapiens (Human), UniProt P17931). Description: competitive binding assay: biotinylated hGal-3 binding to microplate-adsorbed asialofetuin (ASF). The method, boiled down:
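Competition of compounds with biotinylated human Gal-3 for asialofetuin-coated plates, 3 hours at 4° C. Bound Gal-3 detected with streptavidin-peroxidase (80 ng/mL, 1 hour, 4° C) and ABTS substrate. IC50 reported as the mean of several measurements.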

A further test has as its target human Gal-1 (hGal-1) (Homo sapiens (Human), UniProt P09382). The experiment in a line: competitive binding assay: biotinylated hGal-1 binding to microplate-adsorbed asialofetuin (ASF). The note with it: Table 15; read-out: IC50 (Galectin-1 inhibition). Summed up: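 Biotinylated human Gal-1 (300-1000 ng/mL) competes with serially diluted compound for binding to ASF-coated plates, 3 h at 4° C. Bound protein detected with streptavidin-peroxidase and ABTS substrate (spectrophotometric). IC50 given as mean of several measurements.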

[1] abbreviates: Gal-3 inhibition, binding of biotinylated hGal-3 to ASF, mean values, read-out: IC50.
Where [2] appears, read: Table 11, read-out: IC50 (Gal-3 inhibition).
Setting [3] is: Table 5, read-out: IC50 (Gal-3 inhibition).
[4] abbreviates: Table 14, read-out: IC50 (Gal-3 inhibition).

Chain of human Gal-1 (hGal-1) (P09382 whole entry): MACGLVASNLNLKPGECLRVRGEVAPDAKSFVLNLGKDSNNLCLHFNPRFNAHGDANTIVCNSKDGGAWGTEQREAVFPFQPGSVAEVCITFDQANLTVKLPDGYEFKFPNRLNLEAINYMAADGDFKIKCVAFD
Chain of human Gal-3 (hGal-3) (P17931 whole entry): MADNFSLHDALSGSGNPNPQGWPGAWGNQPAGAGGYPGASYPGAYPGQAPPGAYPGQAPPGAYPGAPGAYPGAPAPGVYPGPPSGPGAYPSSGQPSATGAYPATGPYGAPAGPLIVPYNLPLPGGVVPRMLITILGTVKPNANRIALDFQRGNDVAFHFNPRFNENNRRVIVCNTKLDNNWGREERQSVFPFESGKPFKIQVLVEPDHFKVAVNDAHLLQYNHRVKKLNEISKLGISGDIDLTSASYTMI

One may read the IC50 as the point on the concentration scale where inhibition reaches its midpoint. For the compound `OC[C@H]1O[C@@H](S[C@@H](c2ncccc2C2CC2)C2(O)CCC(F)(F)CC2)[C@H](O)[C@@H](n2cc(-c3cc(F)c(F)c(F)c3)nn2)[C@H]1O` [Example 2.44.134S., (2S,3R,4S,5R,6R)-2-(((S)-(3-Cyclopropylpyridin-2-yl)(4,4-difluoro-1-hydroxycyclohexyl)methyl)thio)-6-(hydroxymethyl)-4-(4-(3,4,5-trifluorophenyl)-1H-1,2,3-triazol-1-yl)tetrahydro-2H-pyran-3,5-diol], the IC50 on human Gal-3 (hGal-3) (setting [1]) was 700 nM; at human Gal-1 (hGal-1) it was 2.7 µM.

Turning to `CO[C@@H]1[C@@H](n2cc(-c3cc(F)c(F)c(F)c3)nn2)[C@@H](O)[C@@H](CO)O[C@H]1SC(c1nc(C)ccc1C)C1(O)CCC(F)(F)CC1` (stereo partly drawn) [Example 2.44.149.I., (2R,3R,4S,5R,6S)-6-(((4,4-Difluoro-1-hydroxycyclohexyl)(3,6-dimethylpyridin-2-yl)methyl)thio)-2-(hydroxymethyl)-5-methoxy-4-(4-(3,4,5-trifluorophenyl)-1H-1,2,3-triazol-1-yl)tetrahydro-2H-pyran-3-ol], the IC50 turned out to be 400 nM on human Gal-3 (hGal-3) (setting [2]) and 2.8 µM on human Gal-1 (hGal-1).

For `OC[C@H]1O[C@@H](S[C@H](c2ccccc2C(F)(F)F)C2(O)CCOCC2)[C@H](O)[C@@H](n2cc(-c3cc(F)c(F)c(F)c3)nn2)[C@H]1O` [Example 2.41.112R., (2R,3R,4S,5R,6S)-2-(Hydroxymethyl)-6-(((R)-(4-hydroxytetrahydro-2H-pyran-4-yl)(2-(trifluoromethyl)phenyl)methyl)thio)-4-(4-(3,4,5-trifluorophenyl)-1H-1,2,3-triazol-1-yl)tetrahydro-2H-pyran-3,5-diol], the IC50 at human Gal-3 (hGal-3) (setting [3]) was determined as 80 nM; on human Gal-1 (hGal-1) it was 0.9 µM.

Regarding `CO[C@@H]1[C@@H](n2cc(-c3ccc(F)c(F)c3)nn2)[C@@H](O)[C@@H](CO)O[C@H]1SC(c1ncccc1C)C1(O)CCC(F)(F)CC1` (stereo partly drawn) [Example 16.44.126.I., (2R,3R,4S,5R,6S)-6-(((4,4-Difluoro-1-hydroxycyclohexyl)(3-methylpyridin-2-yl)methyl)thio)-4-(4-(3,4-difluorophenyl)-1H-1,2,3-triazol-1-yl)-2-(hydroxymethyl)-5-methoxytetrahydro-2H-pyran-3-ol], the half-inhibitory concentration (IC50) on human Gal-3 (hGal-3) (setting [4]) was 90 nM; on human Gal-1 (hGal-1) it was 0.73 µM.

As to `CCc1cccnc1[C@H](S[C@@H]1O[C@H](CO)[C@H](O)[C@H](n2cc(-c3cc(F)c(F)c(F)c3)nn2)[C@H]1OC)C1(O)CCC(F)(F)CC1` [Example 2.44.142S.I., (2R,3R,4S,5R,6S)-6-(((S)-(4,4-Difluoro-1-hydroxycyclohexyl)(3-ethylpyridin-2-yl)methyl)thio)-2-(hydroxymethyl)-5-methoxy-4-(4-(3,4,5-trifluorophenyl)-1H-1,2,3-triazol-1-yl)tetrahydro-2H-pyran-3-ol], the IC50 at human Gal-3 (hGal-3) (setting [2]) is 8110 nM; on human Gal-1 (hGal-1), 8.31 µM.

On to “(2S,3R,4S,5R,6R)-2-(((S)-(4,4-Difluoro-1-hydroxycyclohexyl)(2-(trifluoromethyl)phenyl)methyl)thio)-6-(hydroxymethyl)-4-(4-(3,4,5-trifluorophenyl)-1H-1,2,3-triazol-1-yl)tetrahydro-2H-pyran-3,5-diol [Example 2.44.112S.]”, for which the IC50 was 19500 nM at human Gal-3 (hGal-3) (setting [3]) and 17.6 µM at human Gal-1 (hGal-1).

With “(2S,3R,4S,5R,6R)-2-(((S)-((R)-4-Hydroxy-2,2-dimethyltetrahydro-2H-pyran-4-yl)(o-tolyl)methyl)thio)-6-(hydroxymethyl)-4-(4-(3,4,5-trifluorophenyl)-1H-1,2,3-triazol-1-yl)tetrahydro-2H-pyran-3,5-diol [Example 2.43.112SR.]”, the concentration for half-maximal inhibition (IC50) at human Gal-3 (hGal-3) (setting [3]) turned out to be 4900 nM; on human Gal-1 (hGal-1), 10.9 µM.

Turning to `CO[C@@H]1[C@@H](n2cc(-c3cc(F)c(F)c(F)c3)nn2)[C@@H](O)[C@@H](CO)O[C@H]1SC(c1ccccc1C(F)(F)F)C1(O)CCN(C(=O)NC2CC2)CC1` (stereo partly drawn) [Example 2.49.112.I.], the half-inhibitory concentration (IC50) on human Gal-3 (hGal-3) (setting [1]) turned out to be 210 nM; on human Gal-1 (hGal-1), 0.49 µM.

`Cc1ccccc1[C@H](S[C@@H]1O[C@H](CO)[C@H](O)[C@H](n2cc(-c3cc(F)c(F)c(F)c3)nn2)[C@H]1O)C1(O)CCCC1` [Example 2.38.102S., (2S,3R,4S,5R,6R)-2-(((S)-(1-Hydroxycyclopentyl)(o-tolyl)methyl)thio)-6-(hydroxymethyl)-4-(4-(3,4,5-trifluorophenyl)-1H-1,2,3-triazol-1-yl)tetrahydro-2H-pyran-3,5-diol]: the IC50 was found to be 2750 nM on human Gal-3 (hGal-3) (setting [3]) and 17 µM at human Gal-1 (hGal-1).

Consider `OC[C@H]1O[C@@H](S[C@@H](c2nccnc2Cl)C2(O)CCC(F)(F)CC2)[C@H](O)[C@@H](n2cc(-c3cc(F)c(F)c(F)c3)nn2)[C@H]1O` [Example 2.44.133S., (2S,3R,4S,5R,6R)-2-(((S)-(3-Chloropyrazin-2-yl)(4,4-difluoro-1-hydroxycyclohexyl)methyl)thio)-6-(hydroxymethyl)-4-(4-(3,4,5-trifluorophenyl)-1H-1,2,3-triazol-1-yl)tetrahydro-2H-pyran-3,5-diol], for which the half-inhibitory concentration (IC50) on human Gal-3 (hGal-3) (setting [1]) came out at 1830 nM; at human Gal-1 (hGal-1) it was 15.8 µM.

Take `Cc1cccnc1[C@H](S[C@@H]1O[C@H](CO)[C@H](O)[C@H](n2cc(-c3cc(F)c(F)c(F)c3)nn2)[C@H]1O)C1(O)CCOCC1` [Example 2.41.126S., (2R,3R,4S,5R,6S)-2-(Hydroxymethyl)-6-(((S)-(4-hydroxytetrahydro-2H-pyran-4-yl)(3-methylpyridin-2-yl)methyl)thio)-4-(4-(3,4,5-trifluorophenyl)-1H-1,2,3-triazol-1-yl)tetrahydro-2H-pyran-3,5-diol]: the figures for the half-maximal inhibitory concentration (IC50) on human Gal-3 (hGal-3) (setting [1]) and at human Gal-1 (hGal-1) were 2250 nM and 70.4 µM, respectively.

Turning to `OC[C@H]1O[C@@H](S[C@H](c2ccccc2C(F)(F)F)C2(O)CC(F)(F)C2)[C@H](O)[C@@H](n2cc(-c3cc(F)c(F)c(F)c3)nn2)[C@H]1O` [Example 2.33.112R., (2S,3R,4S,5R,6R)-2-(((R)-(3,3-Difluoro-1-hydroxycyclobutyl)(2-(trifluoromethyl)phenyl)methyl)thio)-6-(hydroxymethyl)-4-(4-(3,4,5-trifluorophenyl)-1H-1,2,3-triazol-1-yl)tetrahydro-2H-pyran-3,5-diol], the figures for the IC50 on human Gal-3 (hGal-3) (setting [3]) and at human Gal-1 (hGal-1) were 140 nM and 0.67 µM, respectively.

As for `Cc1cscc1C(S[C@@H]1O[C@H](CO)[C@H](O)[C@H](n2cc(-c3cc(F)c(F)c(F)c3)nn2)[C@H]1O)C(C)(C)O` (stereo partly drawn) [Example 2.31.124., (2S,3R,4S,5R,6R)-2-((2-Hydroxy-2-methyl-1-(4-methylthiophen-3-yl)propyl)thio)-6-(hydroxymethyl)-4-(4-(3,4,5-trifluorophenyl)-1H-1,2,3-triazol-1-yl)tetrahydro-2H-pyran-3,5-diol], the figures for the IC50 on human Gal-3 (hGal-3) (setting [1]) and on human Gal-1 (hGal-1) were 500 nM and 5.15 µM, respectively.

For “(2S,3R,4S,5R,6R)-2-(((S)-(2,3-Dichlorophenyl)(4,4-difluoro-1-hydroxycyclohexyl)methyl)thio)-6-(hydroxymethyl)-4-(4-(3,4,5-trifluorophenyl)-1H-1,2,3-triazol-1-yl)tetrahydro-2H-pyran-3,5-diol [Example 2.44.113S.]”, the IC50 at human Gal-3 (hGal-3) (setting [3]) turned out to be 57500 nM; at human Gal-1 (hGal-1), 56.8 µM.

On to `OC[C@H]1O[C@@H](S[C@H](c2ncccc2C2CC2)C2(O)CCC(F)(F)CC2)[C@H](O)[C@@H](n2cc(-c3cc(F)c(F)c(F)c3)nn2)[C@H]1O` [Example 2.44.134R., (2S,3R,4S,5R,6R)-2-(((R)-(3-Cyclopropylpyridin-2-yl)(4,4-difluoro-1-hydroxycyclohexyl)methyl)thio)-6-(hydroxymethyl)-4-(4-(3,4,5-trifluorophenyl)-1H-1,2,3-triazol-1-yl)tetrahydro-2H-pyran-3,5-diol], for which the figures for the IC50 at human Gal-3 (hGal-3) (setting [1]) and on human Gal-1 (hGal-1) were 10 nM and 0.05 µM, respectively.

Consider `CO[C@@H]1[C@@H](n2cc(-c3cc(F)c(C)c(F)c3)nn2)[C@@H](O)[C@@H](CO)O[C@H]1S[C@H](c1ncccc1C)C1(O)CCC(F)(F)CC1` [Example 3.44.126R.I., (2R,3R,4S,5R,6S)-6-(((R)-(4,4-Difluoro-1-hydroxycyclohexyl)(3-methylpyridin-2-yl)methyl)thio)-4-(4-(3,5-difluoro-4-methylphenyl)-1H-1,2,3-triazol-1-yl)-2-(hydroxymethyl)-5-methoxytetrahydro-2H-pyran-3-ol], for which the values for the IC50 on human Gal-3 (hGal-3) (setting [4]) and on human Gal-1 (hGal-1) were 40 nM and 2.43 µM, respectively.

Regarding `CCc1onc([C@@H](S[C@@H]2O[C@H](CO)[C@H](O)[C@H](n3cc(-c4cc(F)c(F)c(F)c4)nn3)[C@H]2OC)C2(O)CCC(F)(F)CC2)c1C` [Example 2.44.140R.I., (2R,3R,4S,5R,6S)-6-(((R)-(4,4-Difluoro-1-hydroxycyclohexyl)(5-ethyl-4-methylisoxazol-3-yl)methyl)thio)-2-(hydroxymethyl)-5-methoxy-4-(4-(3,4,5-trifluorophenyl)-1H-1,2,3-triazol-1-yl)tetrahydro-2H-pyran-3-ol], the half-inhibitory concentration (IC50) at human Gal-3 (hGal-3) (Table 10, 2-OMe-Gal inhibitors, read-out: IC50 (Gal-3 inhibition)) worked out at 120 nM; at human Gal-1 (hGal-1) it was 0.7 µM.

Turning to `CO[C@@H]1[C@@H](n2cc(-c3cc(F)c(F)c(F)c3)nn2)[C@@H](O)[C@@H](CO)O[C@H]1S[C@@H](c1nc(C)ccc1Cl)C1(O)CCC(F)(F)CC1` [Example 2.44.148S.I., (2R,3R,4S,5R,6S)-6-(((S)-(3-Chloro-6-methylpyridin-2-yl)(4,4-difluoro-1-hydroxycyclohexyl)methyl)thio)-2-(hydroxymethyl)-5-methoxy-4-(4-(3,4,5-trifluorophenyl)-1H-1,2,3-triazol-1-yl)tetrahydro-2H-pyran-3-ol], the values for the IC50 on human Gal-3 (hGal-3) (setting [2]) and at human Gal-1 (hGal-1) were 6990 nM and 31 µM, respectively.
